Patent publication US9320276B2, “N-hetarylmethyl pyrazolylcarboxamides” (BAYER INTELLECTUAL PROPERTY GMBH, priority 2010, dated 2016)

How the values were obtained:
Pyrenophora teres = assay: in vivo preventive test on Pyrenophora teres (barley); details: 500 ppm of active ingredient, evaluated 7-9 days after inoculation
Method: Solvent: 49 parts by weight of N,N-dimethylformamide Emulsifier: 1 part by weight of alkylaryl polyglycol ether To produce a suitable preparation of active compound, 1 part by weight of active compound is mixed with the stated amounts of solvent and emulsifier, and the concentrate is diluted with water to the desired concentration. To test for preventive activity, young plants are sprayed with the preparation of active compound at the stated rate of application. One day after this treatment, the plants are inoculated with an aqueous spore suspension of Pyrenophora teres. The plants remain for 48 hours in an incubation cabinet at 22° C. and a relative atmospheric humidity of 100%. Then the plants are placed in a greenhouse at a temperature of approximately 20° C. and a relative atmospheric humidity of approximately 80%. The test is evaluated 7-9 days after the inoculation. 0% means an efficacy which corresponds to that of the untreated control while an efficacy of 100% means that no disease is observed.

Alternaria solani = assay: in vivo preventive test on Alternaria solani (tomato); details: 500 ppm of active ingredient, evaluated 7 days after inoculation
Method: Solvent: 49 parts by weight of N,N-dimethylformamide Emulsifier: 1 part by weight of Alkylarylpolyglycolether To produce a suitable preparation of active compound, 1 part by weight of active compound is mixed with the stated amounts of solvent and emulsifier, and the concentrate is diluted with water to the desired concentration. To test for preventive activity, young plants are sprayed with the preparation of active compound at the stated rate of application. One day after this treatment, the plants are inoculated with an aqueous spore suspension of Alternaria solani. The plants remain for one day in an incubation cabinet at approximately 22° C. and a relative atmospheric humidity of 100%. Then the plants are placed in an incubation cabinet at approximately 20° C. and a relative atmospheric humidity of 96%. The test is evaluated 7 days after the inoculation. 0% means an efficacy which corresponds to that of the untreated control while an efficacy of 100% means that no disease is observed.

[1] = logP by HPLC on reversed-phase column (EEC Directive 79/831 Annex V.A8); format: physicochemical; details: 40° C., 0.1% aqueous formic acid and acetonitrile, linear gradient 10% to 90% acetonitrile
Method: In table 1, the logP values were determined in accordance with EEC Directive 79/831 Annex V.A8 by HPLC (High Performance Liquid Chromatography) on a reversed-phase column (C 18), using the method described below: Temperature: 40° C.; Mobile phases: 0.1% aqueous formic acid and acetonitrile; linear gradient from 10% acetonitrile to 90% acetonitrile. Calibration was carried out using unbranched alkan-2-ones (comprising 3 to 16 carbon atoms) with known logP values (determination of the logP values by the retention times using linear interpolation between two successive alkanones). lambda-max-values were determined using UV-spectra from 200 nm to 400 nm and the peak values of the chromatographic signals.

[2] = HPLC on reversed-phase column (C 18)

Work on `CC(NC(=O)c1c(C(F)F)nn(C)c1Cl)c1cc2ccccc2s1` (racemic) [Example 81] yielded an Efficacy (Pyrenophora teres) of 90%, an Efficacy (Alternaria solani) of 100% and a logP [1, 2] of 3.13.

`CC(NC(=O)c1c(C(F)F)nn(C)c1F)c1cc2ccccc2s1` (racemic) [Example 82] showed an Efficacy (Pyrenophora teres) of 90%, an Efficacy (Alternaria solani) of 100% and a logP [1, 2] of 2.98.

`CC(c1csc2ccccc12)N(C(=S)c1c(C(F)F)nn(C)c1F)C1CC1` (racemic) [Example 86] gave an Efficacy (Pyrenophora teres) of 100%, an Efficacy (Alternaria solani) of 70% and a logP [1, 2] of 4.44.

For `Cn1nc(C(F)F)c(C(=O)N(Cc2ccco2)C2CC2)c1F` [Example 5], the Efficacy (Pyrenophora teres) was 95%, the Efficacy (Alternaria solani) was 80% and the logP [1, 2] was 2.32.

`CCN(Cc1nonc1C)C(=O)c1c(C(F)F)nn(C)c1F` [Example 28] showed an Efficacy (Alternaria solani) of 90% and a logP [1, 2] of 2.05.

In the case of `Cc1ccsc1CN(C(=O)c1c(C(F)F)nn(C)c1Cl)C1CCCC1` [Example 37], the Efficacy (Alternaria solani) is reported as 80% and the logP [1, 2] is reported as 3.61.

`Cc1ccsc1CN(C(=O)c1c(C(F)F)nn(C)c1Cl)C1CC1` [Example 39] showed an Efficacy (Pyrenophora teres) of 100%, an Efficacy (Alternaria solani) of 95% and a logP [1, 2] of 3.02.

In the case of `Cc1ccsc1CN(C)C(=O)c1c(C(F)F)nn(C)c1F` [Example 42], the Efficacy (Alternaria solani) is reported as 70% and the logP [1, 2] is reported as 2.44.

`Cc1cc(C(C)N(C(=O)c2c(C(F)F)nn(C)c2Cl)C2CC2)c(C)s1` (stereo not drawn) [Example 49] gave an Efficacy (Pyrenophora teres) of 95%, an Efficacy (Alternaria solani) of 80% and a logP [1, 2] of 3.79.

Compound `Cn1nc(C(F)F)c(C(=O)N(Cc2ccc(Cl)nc2)C2CC2)c1F` [Example 67] has an Efficacy (Pyrenophora teres) of 90%, an Efficacy (Alternaria solani) of 95% and a logP [1, 2] of 2.25.

`Cn1nc(C(F)F)c(C(=O)N(Cc2cc3ccccc3o2)C2CC2)c1Cl` [Example 72] showed an Efficacy (Pyrenophora teres) of 90% and a logP [1, 2] of 3.21.

With `Cn1nc(C(F)F)c(C(=O)NC2(c3cc4ccccc4o3)CCCC2)c1F` [Example 75] the Efficacy (Pyrenophora teres) was 89%, the Efficacy (Alternaria solani) was 70% and the logP [1, 2] was 3.52.

With `Cn1nc(C(F)F)c(C(=O)NCc2cc3ccccc3s2)c1Cl` [Example 83] the Efficacy (Alternaria solani) was 94% and the logP [1, 2] was 2.92.

Work on `Cn1nc(C(F)F)c(C(=O)NCc2csc3ccccc23)c1F` [Example 88] yielded an Efficacy (Alternaria solani) of 78% and a logP [1, 2] of 2.73.

With `Cn1nc(C(F)F)c(C(=O)N(Cc2csc3ccccc23)C2CC2)c1Cl` [Example 89] the Efficacy (Pyrenophora teres) was 95%, the Efficacy (Alternaria solani) was 80% and the logP [1, 2] was 3.41.

Compound `CC(c1cccc2ccsc12)N(C(=O)c1c(C(F)F)nn(C)c1Cl)C1CC1` (stereo not drawn) [Example 92] has an Efficacy (Pyrenophora teres) of 100% and a logP [1, 2] of 3.61.

`Cn1nc(C(F)F)c(C(=O)N(Cc2cccc3ccsc23)C2CC2)c1Cl` [Example 94] gave an Efficacy (Pyrenophora teres) of 95%, an Efficacy (Alternaria solani) of 95% and a logP [1, 2] of 3.31.

With `Cn1nc(C(F)F)c(C(=O)N(Cc2nc3ccccc3s2)C2CC2)c1F` [Example 98] the Efficacy (Pyrenophora teres) was 100%, the Efficacy (Alternaria solani) was 80% and the logP [1, 2] was 2.68.

With `CN(Cc1ccc2nsnc2c1)C(=O)c1c(C(F)F)nn(C)c1F` [Example 100] the Efficacy (Alternaria solani) was 95% and the logP [1, 2] was 2.17.

Work on `CC(C)Oc1ccc(CN(C)C(=O)c2c(C(F)F)nn(C)c2F)cn1` [Example 102] yielded an Efficacy (Pyrenophora teres) of 70% and a logP [1, 2] of 2.45.

Compound `Cn1nc(C(F)F)c(C(=O)NC2CCCc3sccc32)c1Cl` (stereo not drawn) [Example 103] has an Efficacy (Alternaria solani) of 94% and a logP [1, 2] of 2.90.

In the case of `Cn1nc(C(F)F)c(C(=O)NC2CCCc3sccc32)c1F` (stereo not drawn) [Example 104], the Efficacy (Alternaria solani) is reported as 94% and the logP [1, 2] is reported as 2.73.

`CN(Cc1cc(CC(C)(C)C)no1)C(=O)c1c(C(F)F)nn(C)c1F` [Example 105] showed an Efficacy (Pyrenophora teres) of 100%, an Efficacy (Alternaria solani) of 95% and a logP [1, 2] of 2.75.

Work on `Cn1nc(C(F)F)c(C(=O)N(Cc2cc(CC(C)(C)C)no2)C2CC2)c1F` [Example 106] yielded an Efficacy (Pyrenophora teres) of 100%, an Efficacy (Alternaria solani) of 95% and a logP [1, 2] of 3.17.

Compound `Cn1nc(C(F)F)c(C(=O)N(Cc2cc(CC(C)(C)C)no2)C2CC2)c1Cl` [Example 107] has an Efficacy (Pyrenophora teres) of 80% and a logP [1, 2] of 3.31.

With `CN(Cc1cnn(-c2ccccc2)c1)C(=O)c1c(C(F)F)nn(C)c1Cl` [Example 108] the Efficacy (Alternaria solani) was 90% and the logP [1, 2] was 2.40.

For `CN(Cc1cnn(-c2ccccc2)c1)C(=O)c1c(C(F)F)nn(C)c1F` [Example 109], the Efficacy (Pyrenophora teres) was 100%, the Efficacy (Alternaria solani) was 95% and the logP [1, 2] was 2.26.

In the case of `CN(Cc1cc(-c2ccccc2)no1)C(=O)c1c(C(F)F)nn(C)c1F` [Example 110], the Efficacy (Pyrenophora teres) is reported as 100% and the logP [1, 2] is reported as 2.51.

Work on `Cn1nc(C(F)F)c(C(=O)N(Cc2cc(-c3ccccc3)no2)C2CC2)c1F` [Example 111] yielded an Efficacy (Pyrenophora teres) of 100%, an Efficacy (Alternaria solani) of 95% and a logP [1, 2] of 2.92.

For `Cn1nc(C(F)F)c(C(=O)N(Cc2cc(-c3ccccc3)no2)C2CC2)c1Cl` [Example 112], the Efficacy (Pyrenophora teres) was 95% and the logP [1, 2] was 3.04.

With `CN(Cc1nc(-c2ccccc2)no1)C(=O)c1c(C(F)F)nn(C)c1F` [Example 114] the Efficacy (Pyrenophora teres) was 95%, the Efficacy (Alternaria solani) was 95% and the logP [1, 2] was 2.58.

`Cn1nc(C(F)F)c(C(=O)N(Cc2c(Cl)cncc2Cl)C2CC2)c1Cl` [Example 116] showed an Efficacy (Pyrenophora teres) of 95%, an Efficacy (Alternaria solani) of 90% and a logP [1, 2] of 2.64.

`Cn1nc(C(F)F)c(C(=O)N(Cc2cnc(Cl)cc2Cl)C2CC2)c1F` [Example 118] gave an Efficacy (Pyrenophora teres) of 100%, an Efficacy (Alternaria solani) of 95% and a logP [1, 2] of 2.73.

Work on `CC(c1cnc(Cl)c(Cl)c1)N(C(=O)c1c(C(F)F)nn(C)c1Cl)C1CC1` (stereo not drawn) [Example 120] yielded an Efficacy (Pyrenophora teres) of 100%, an Efficacy (Alternaria solani) of 90% and a logP [1, 2] of 3.27.

Work on `CC(c1cnc(Cl)c(Cl)c1)N(C(=O)c1c(C(F)F)nn(C)c1F)C1CC1` (stereo not drawn) [Example 121] yielded an Efficacy (Pyrenophora teres) of 100%, an Efficacy (Alternaria solani) of 95% and a logP [1, 2] of 3.11.

`Cc1c(CN(C(=O)c2c(C(F)F)nn(C)c2Cl)C2CC2)sc2ccccc12` [Example 123] showed an Efficacy (Pyrenophora teres) of 90% and a logP [1, 2] of 3.74.

With `CC(c1cc(Cl)sc1Cl)N(C(=O)c1c(C(F)F)nn(C)c1Cl)C1CC1` (stereo not drawn) [Example 127] the Efficacy (Pyrenophora teres) was 95%, the Efficacy (Alternaria solani) was 95% and the logP [1, 2] was 4.24.

`CN(Cc1cscc1Br)C(=O)c1c(C(F)F)nn(C)c1F` [Example 133] gave an Efficacy (Pyrenophora teres) of 90%, an Efficacy (Alternaria solani) of 70% and a logP [1, 2] of 2.52.

In the case of `Cn1nc(C(F)F)c(C(=O)N(Cc2cc(Cl)nc3ccccc23)C2CC2)c1F` [Example 138], the Efficacy (Pyrenophora teres) is reported as 100% and the logP [1, 2] is reported as 2.92.

`Cn1nc(C(F)F)c(C(=O)N(Cc2cc(Cl)nc3ccccc23)C2CC2)c1Cl` [Example 139] gave an Efficacy (Pyrenophora teres) of 90% and a logP [1, 2] of 3.09.

For `CN(Cc1sc2ccccc2c1Cl)C(=O)c1c(C(F)F)nn(C)c1F` [Example 142], the Efficacy (Pyrenophora teres) was 100%, the Efficacy (Alternaria solani) was 80% and the logP [1, 2] was 3.48.

`Cn1nc(C(F)F)c(C(=O)N(Cc2csc3ccc(Cl)cc23)C2CC2)c1Cl` [Example 144] showed an Efficacy (Pyrenophora teres) of 100% and a logP [1, 2] of 3.83.

In the case of `Cc1nc(-c2ccccc2)sc1CN(C)C(=O)c1c(C(F)F)nn(C)c1F` [Example 149], the Efficacy (Pyrenophora teres) is reported as 80%, the Efficacy (Alternaria solani) is reported as 80% and the logP [1, 2] is reported as 2.77.

Compound `CC(C)N(Cc1cnn(-c2ccc(Cl)cc2)c1)C(=O)c1c(C(F)F)nn(C)c1Cl` [Example 151] has an Efficacy (Pyrenophora teres) of 75% and a logP [1, 2] of 3.39.

For `Cn1nc(C(F)F)c(C(=O)N(Cc2cc(-c3ccc(Cl)cc3)no2)C2CC2)c1Cl` [Example 154], the Efficacy (Pyrenophora teres) was 100% and the logP [1, 2] was 3.59.

For `Cn1nc(C(F)F)c(C(=O)N(Cc2cc3ccccc3n2-c2ccccc2)C2CC2)c1Cl` [Example 156], the Efficacy (Pyrenophora teres) was 90% and the logP [1, 2] was 4.13.

With `Cn1nc(C(F)F)c(C(=O)N(Cc2cc(C(F)(F)F)nc3ccccc23)C2CC2)c1F` [Example 159] the Efficacy (Pyrenophora teres) was 100% and the logP [1, 2] was 3.58.

`Cn1nc(C(F)F)c(C(=O)N(Cc2cc(C(F)(F)F)nc3ccccc23)C2CC2)c1Cl` [Example 160] gave an Efficacy (Pyrenophora teres) of 90% and a logP [1, 2] of 3.72.

In the case of `Cn1nc(C(F)F)c(C(=O)N(Cc2ccnc3cc(Cl)cc(Cl)c23)C2CC2)c1Cl` [Example 162], the Efficacy (Pyrenophora teres) is reported as 94% and the logP [1, 2] is reported as 3.57.

For `CN(Cc1cc(-c2cc(F)c(F)c(F)c2)no1)C(=O)c1c(C(F)F)nn(C)c1F` [Example 164], the Efficacy (Pyrenophora teres) was 100% and the logP [1, 2] was 3.11.

In the case of `Cn1nc(C(F)F)c(C(=O)N(Cc2cc(-c3cc(F)c(F)c(F)c3)no2)C2CC2)c1Cl` [Example 166], the Efficacy (Pyrenophora teres) is reported as 90% and the logP ([1]; HPLC, reversed-phase column (C 18)) is reported as 3.64.
